Where two headings read alike, the source gives them in different places.
Assays:
[1] = test system: lymphoma cell lines; assay: Cell growth inhibition and median-drug effect analysis, panel of lymphoma cell lines; assay type: cell-based
Procedure: (§1) Cells were plated in 96-wells flat bottom plates, at 3,000 or 6,000 cells per well in culture medium (75 μL/well) or in 24-wells plates (60,000 cells/well) for the counting assays for which a Coulter Counter was used. Cells were treated immediately with a drug dilution series in cell culture medium (75 μL/well). […] After incubation for 3 h in the 5% CO2 incubator with 100% humidity at 37°C, 150 μL acidified 2-propanol was added to the plates to dissolve the formazan crystals. The yellow-colored MTT stock solution is taken up and reduced to a purple formazan in living cells, which directly correlates to the amount of viable cells. As final step, the plates were measured at 540 (or 492) nm by the SPECTRAfluor spectrophotometer. […] Drug interaction in combination experiments was evaluated using the median-drug effect analysis using CalcuSyn software ([Bijnsdorp et al., 2011]). […] The means of the separate experiments were subsequently averaged so that a mean ± Standard Error of the Mean (SEM) was calculated from three or more separate experiments. […] Drug combinations were designed based on the standard CalcuSyn approach in which a series of drug concentrations were combined in a fixed molar ratio, based on the IC50 of each drug. A variation of this approach was a sequential scheduling in which cells were exposed for 72 h to BLS, while in the combination PLX was added after 24 h and cells were exposed from 24 to 72 h.

[2] = test system: HT cells; assay: Cell growth inhibition (cell counting) and median-drug effect analysis, HT; assay type: cell-based; conditions: for IC50: HT
[3] = test system: SUDHL-5 cells; assay: Cell growth inhibition (MTT) and median-drug effect analysis, SUDHL-5; assay type: cell-based; conditions: Homo sapiens, SU-DHL-5, read-out: IC50 (50% growth inhibition); SUDHL 5, 72 h exposure
Procedure: (§2) Cells were treated immediately with a drug dilution series in cell culture medium (75 μL/well). After an incubation period of approximately 72 h, growth in the 96-wells plates was assessed by adding 15 μL MTT solution (stock solution 5 mg/ml in PBS, final concentration 0.5 mg/ml in culture medium) to each well. After incubation for 3 h in the 5% CO2 incubator with 100% humidity at 37°C, 150 μL acidified 2-propanol was added to the plates to dissolve the formazan crystals. The yellow-colored MTT stock solution is taken up and reduced to a purple formazan in living cells, which directly correlates to the amount of viable cells. As final step, the plates were measured at 540 (or 492) nm by the SPECTRAfluor spectrophotometer.
Drug interaction in combination experiments was evaluated using the median-drug effect analysis using CalcuSyn software ([Bijnsdorp et al., 2011]). In order to evaluate combination indexes [CI] from different experiments, the CI values at Fraction Affected (FA) values >0.5 (preferably around 0.5, 0.75, and 0.9) were averaged for each specific experiment. The means of the separate experiments were subsequently averaged so that a mean ± Standard Error of the Mean (SEM) was calculated from three or more separate experiments. […] Drug combinations were designed based on the standard CalcuSyn approach in which a series of drug concentrations were combined in a fixed molar ratio, based on the IC50 of each drug. A variation of this approach was a sequential scheduling in which cells were exposed for 72 h to BLS, while in the combination PLX was added after 24 h and cells were exposed from 24 to 72 h. In the non-fixed ratio approach one drug was used at the IC25 (concentration that results in 25% growth inhibition) and the other drug was added in a concentration range.

[4] = test system: Jeko-1; assay: Cell growth inhibition (MTT) and median-drug effect analysis, Jeko-1; assay type: cell-based; conditions: Homo sapiens, read-out: IC50 (50% growth inhibition); Jeko-1, 72 h exposure
Procedure: as §1, with “A variation of this approach was a sequential scheduling in which cells were exposed for 72 h to BLS, while in the combination PLX was added after 24 h and cells were exposed from 24 to 72 h.” left out

[5] = test system: HT cells; assay: FACS propidium iodide staining: cell cycle distribution and cell death, HT; assay type: cell-based
Procedure: (§3) Propidium iodide staining (DNA staining) was used to determine cell cycle distribution and the extent of cell death. Cells (120,000 per well in a 24-wells plate) were exposed to PLX or BLS or the combination for 24, 48, or 72 h. Cells were harvested, suspended in 1.0 ml phosphate buffered saline/1% Bovine serum albumin and fixed with 70% ethanol. After centrifugation the pellet was resuspended in hypotonic propidium iodide (0.1 mg/ml), Triton-X-100 (0.1%), sodium citrate (1 mg/ml) and RNAse A (0.5 mg/ml) (final concentrations in saline) and stored in dark on ice for 30 min ([De Wilt et al., 2012]). DNA content of the cells to determine cell cycle effects and cell kill was analyzed by a FACScalibur (Becton Dickinson Immunocytometry Systems, San Jose, CA, United States) with an acquisition of 10,000 events as described previously ([De Wilt et al., 2012]).

[6] = test system: SUDHL-4 cells; assay: FACS propidium iodide staining: cell death, SUDHL-4; assay type: cell-based; conditions: drugs at their IC50, untreated 5.0%
Procedure: as §3

[7] = test system: CCRF-CEM; assay: Cell growth inhibition (MTT), CCRF-CEM; assay type: cell-based, human; conditions: Homo sapiens, read-out: IC50 (50% growth inhibition); CCRF-CEM, 72 h exposure
Procedure: as §2

[8] = test system: Karpas-299; assay: Cell growth inhibition (MTT) and median-drug effect analysis, Karpas-299; assay type: cell-based; conditions: Homo sapiens, read-out: IC50 (50% growth inhibition); Karpas-299, 72 h exposure
Procedure: as §2
(§4) Drug interaction in combination experiments was evaluated using the median-drug effect analysis using CalcuSyn software ([Bijnsdorp et al., 2011]). In order to evaluate combination indexes [CI] from different experiments, the CI values at Fraction Affected (FA) values >0.5 (preferably around 0.5, 0.75, and 0.9) were averaged for each specific experiment. The means of the separate experiments were subsequently averaged so that a mean ± Standard Error of the Mean (SEM) was calculated from three or more separate experiments. […]

[9] = test system: Hut-29; assay: Cell growth inhibition (MTT) and median-drug effect analysis, Hut-29; assay type: cell-based; conditions: read-out: IC50 (50% growth inhibition); Hut-29, 72 h exposure
Procedure: as §2, §4

[10] = test system: SUDHL-4 cells; assay: Cell growth inhibition (cell counting) and median-drug effect analysis, SUDHL-4; assay type: cell-based; conditions: Homo sapiens, SU-DHL-4, read-out: IC50 (50% growth inhibition); SUDHL 4, 72 h exposure
[11] = target: T1, FRα (Homo sapiens, UniProt P15328); assay: Intact cell binding assay, displacement of radio-active folic acid from KB cells; conditions: inverse ratio of compound to displace 50% of radio-active folic acid, folic acid set at 1
T1 construct: endogenous in cells; host or cells: KB cells
T1 sequence (P15328 25-257): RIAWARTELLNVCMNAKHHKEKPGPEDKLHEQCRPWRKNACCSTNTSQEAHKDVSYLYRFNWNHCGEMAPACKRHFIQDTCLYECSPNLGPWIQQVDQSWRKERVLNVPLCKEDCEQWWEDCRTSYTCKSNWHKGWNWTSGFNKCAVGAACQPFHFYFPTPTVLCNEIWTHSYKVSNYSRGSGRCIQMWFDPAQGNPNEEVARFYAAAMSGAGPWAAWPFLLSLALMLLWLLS
Procedure: (§5) In order to determine to which extent PLX was a substrate for either the folate receptors, RFC or PCFT we used competition experiments in cell lines overexpressing either transporter ([Westerhof et al., 1995a], [b]; [Jansen et al., 1997]; [Ifergan et al., 2008]; [Lasry et al., 2008]; [van der Heijden et al., 2009]). For FRα and FRβ, we used an intact cell binding assay for competitive binding with KB cells and CHO-FRβ cells, respectively. […] For RFC we used a competition assay with 5 μM [^3H]-l-LV in CCRF-CEM/7A cells (RFC+++) for 2 min at 37°C. CEM-7A cells overexpress the RFC 30-fold over wild-type CCRF-CEM cells ([Jansen et al., 1990], [1997]).

[12] = target: T2, FRβ (Homo sapiens, UniProt P14207); assay: Intact cell binding assay, displacement of radio-active folic acid from CHO-FRβ cells; conditions: folic acid set at 1
T2 construct: expressed in transfected cells; host or cells: CHO-FRβ cells
T2 sequence (P14207 17-255, species assumed): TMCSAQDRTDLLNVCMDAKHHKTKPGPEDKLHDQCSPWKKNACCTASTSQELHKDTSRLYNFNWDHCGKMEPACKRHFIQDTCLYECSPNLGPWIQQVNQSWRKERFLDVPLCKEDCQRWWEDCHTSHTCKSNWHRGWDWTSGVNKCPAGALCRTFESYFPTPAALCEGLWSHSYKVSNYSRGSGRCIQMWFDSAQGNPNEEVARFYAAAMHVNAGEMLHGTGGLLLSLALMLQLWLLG
Procedure: as §5

IC50 ([1]; 72 hr exposure, panel of cell lines, read-out: IC50, range over the cell lines) [nM] | IC50 [3] [nM] | IC50 [7] [nM] | IC50 [8] [nM] | IC50 [10] [nM] | FR-α relative affinity [11] | FRβ relative affinity [12] | SMILES | effect of l-LV on sensitivity to BLS ([1]; data not shown) | IC25 (concentration that results in 25% growth inhibition) ([2]; HT cells, 72 h) [nM] | IC50 ([2]; Homo sapiens, 72 h, read-out: IC50 (50% growth inhibition), HT, 72 h exposure) [nM] | IC50 ([2]; read-out: IC50 (50% growth inhibition), 72 h exposure) [nM] | IC50 [4] [nM] | accumulation of cells in the S-phase ([5]; 72 h exposure at IC50) | accumulation of cells in the sub-G1 phase (cell death) ([5]; drugs at their IC50, untreated 3.5%) [%] | accumulation of cells in the sub-G1 phase (cell death) [6] [%] | IC50 [9] [nM]
72 to 233 | 112 ± 15 | 95.8 ± 16.1 | 203 ± 21 | 72.3 ± 5 |  |  | O=C(/C=C/c1cccc(S(=O)(=O)Nc2ccccc2)c1)NO [BLS, Belinostat] | did not affect sensitivity | ~100 | ~220 | 223 ± 23 | 103 ± 11 | more pronounced | 21 | 15.5 | 97 ± 12
 |  |  |  |  | 1 | 1 | Nc1nc(=O)c2nc(CNc3ccc(C(=O)N[C@@H](CCC(=O)O)C(=O)O)cc3)cnc2[nH]1 [FA, Folic acid] |  |  |  |  |  |  |  |  | 

Reference: article PMC7581941, “Schedule-Dependent Synergy Between the Histone Deacetylase Inhibitor Belinostat and the Dihydrofolate Reductase Inhibitor Pralatrexate in T-and B-cell Lymphoma Cells in vitro” (Frontiers in Cell and Developmental Biology, 2020)
